Results reported in paper PMC6112376, “Comprehensive Analyses and Prioritization of Tox21 10K Chemicals Affecting Mitochondrial Function by in-Depth Mechanistic Studies” (Environmental Health Perspectives, 2018).
Read-outs that look alike come from different tables or passages of the source.

Legend:
HepG2 cells [1] = conditions: cited from earlier work
[2] = system: p53 (p53-bla HCT-116 cells); experiment: p53 β-lactamase reporter gene assay; type: cell-based, human; conditions: Homo sapiens; 16 h incubation; mean±SD of three experiments
[3] = system: Caenorhabditis elegans (Bristol N2); experiment: C. elegans larval development and growth assay
HepG2 cells [4] = experiment: cells; conditions: Homo sapiens
HepG2 cells [5] = experiment: Intracellular ATP content (cell viability) assay; type: cell-based, human; conditions: Homo sapiens, HepG2, 40 h treatment, mean±SD of three experiments
rat primary hepatocytes = experiment: MMP assay in rat primary hepatocytes; conditions: for IC50: Rattus norvegicus, Hepatocyte
hNSC = experiment: MMP assay in human neural stem cells (hNSC); type: cell-based; conditions: Homo sapiens, Neural stem cell; 1 h treatment; fresh re-sourced stocks; mean±SD of three experiments; read-out: hNSC IC50 (MMP)
[6] = system: Nrf2/ARE (ARE-bla HepG2 cells); experiment: ARE β-lactamase reporter gene assay; type: cell-based, human; conditions: Homo sapiens, HepG2; 16 h incubation; mean±SD of three experiments; read-out: ARE (HepG2) EC50
[7] = system: Caenorhabditis elegans strain PE255; experiment: In vivo C. elegans ATP status assay
[8] = system: HeLa cells expressing YFP-Parkin; experiment: Parkin translocation assay; type: cell-based, human; conditions: HeLa cells stably expressing YFP-Parkin; treated for 2 h
HepG2 cells [9] = experiment: ROS-Glo hydrogen peroxide (ROS) assay; type: cell-based, human; conditions: Homo sapiens, HepG2; 2 h treatment; mean±SD of three experiments; read-out: ROS (HepG2) EC50
[10] = system: isolated rat liver mitochondria; experiment: Oxygen consumption, Clark-type oxygen electrode; type: biochemical; conditions: for I-ADP, % of control (O2 consumption rate): glutamate/malate driven state 3 respiration; for I-ADP, % of control (O2 consumption rate) / I-sub, % of control (O2 consumption rate) / II-ADP, % of control (O2 consumption rate) / II-sub, % of control (O2 consumption rate): isolated rat liver mitochondria; for I-sub, % of control (O2 consumption rate): glutamate/malate driven state 4 respiration; for II-ADP, % of control (O2 consumption rate): succinate-driven state 3 respiration; for II-sub, % of control (O2 consumption rate): succinate-driven state 4 respiration

In the case of Cc1cc(O)c2c(c1)C(=O)c1cc(O)cc(O)c1C2=O [Emodin], the “MMP assays efficacy (%) qHTS-HepG2” value (HepG2 cells [1]) is listed as -97±5%, the IC50 (HepG2 cells [1]; read-out: MMP assays IC50 (µM) qHTS-HepG2) is listed as 1.33 ± 0.78 µM and the EC50 [2] is listed as 14.9 ± 6.5 µM. The “EXT: mean difference in nematode size relative to plate controls” value ([3]; 0.5 µM) was 0.07129, the “EXT: mean difference in nematode size relative to plate controls” value ([3]; 1 µM) was 0.003832 and the “EXT: mean difference in nematode size relative to plate controls” value ([3]; 5 µM) was -0.0304. For the same molecule, the “EXT: mean difference in nematode size relative to plate controls” value ([3]; 10 µM) was 0.01596, the “EXT: mean difference in nematode size relative to plate controls” value ([3]; 25 µM) was 0.07038 and the “EXT: mean difference in nematode size relative to plate controls” value ([3]; 50 µM) was 0.04376. The “EXT: mean difference in nematode size relative to plate controls” value ([3]; 100 µM) was -0.01346, the “effect on larval growth (in words)” value ([3]; 0.5–100μM, 48 h exposure) was “did not affect growth” and the IC50 (HepG2 cells [4]; HepG2, 1 h, read-out: HepG2 IC50 Galactose (MMP)) was 8 ± 1.44 µM. The IC50 (HepG2 cells [4]; HepG2, 1 h, read-out: HepG2 IC50 Glucose (MMP)) was 6.14 ± 1.29 µM, the IC50 (HepG2 cells [4]; HepG2, read-out: MMP assays IC50 (µM) HepG2) was 2.51 µM and the Emax (HepG2 cells [4]; HepG2, read-out: MMP assays efficacy (%) HepG2) was 104%. The IC50 (HepG2 cells [5]; 5 mM glucose, read-out: ATP (HepG2, glucose) IC50) was 43 ± 4.95 µM, the IC50 (HepG2 cells [5]; 10 mM galactose, read-out: ATP (HepG2, galactose) IC50) was 39.7 ± 2.69 µM and the “Rat hepatocytes (efficacy) (MMP)” value (rat primary hepatocytes; % of positive control, mean±SD of three experiments) was −106±9.55%. The IC50 (rat primary hepatocytes; 1 h, read-out: Rat hepatocytes IC50 (MMP)) was 15.8 ± 1.07 µM, the IC50 (rat primary hepatocytes; read-out: MMP assays IC50 (µM) Rat Hepatocytes) was 6.28 ± 4.57 µM and the “MMP assays efficacy (%) Rat Hepatocytes” value (rat primary hepatocytes; rat hepatocytes, mean ± SD of three experiments) was -101±17%. The IC50 (hNSC) was 1090 ± 560 nM, the EC50 [6] was 10.5 ± 1.45 µM and the “LUM: mean difference in luminescence (ATP content) relative to plate controls” value ([7]; 0.5 µM) was 0.08724. The “LUM: mean difference in luminescence (ATP content) relative to plate controls” value ([7]; 1 µM) was 0.09663, the “LUM: mean difference in luminescence (ATP content) relative to plate controls” value ([7]; 5 µM) was 0.2419 and the “LUM: mean difference in luminescence (ATP content) relative to plate controls” value ([7]; 10 µM) was 0.4641. The “LUM: mean difference in luminescence (ATP content) relative to plate controls” value ([7]; 25 µM) was 0.5201, the “LUM: mean difference in luminescence (ATP content) relative to plate controls” value ([7]; 50 µM) was 0.576 and the “LUM: mean difference in luminescence (ATP content) relative to plate controls” value ([7]; 75 µM) was 0.5532. For the same molecule, the “LUM: mean difference in luminescence (ATP content) relative to plate controls” value ([7]; 100 µM) was 0.7699, the “effect on ATP content (in words)” value ([7]; 0.5–100μM, 24 h exposure) was “statistically significant decreases in ATP content” and the minimal effective concentration ([7]; Caenorhabditis elegans, read-out: LEC LUM: lowest effect concentration for luminescence, a measure of nematode ATP content) was 25 µM. For the same molecule, the Parkin recruitment [8] was “Active”, the EC50 (HepG2 cells [9]) was 5.24 ± 1.72 µM and the “I-ADP, % of control (O2 consumption rate)” value ([10]; 0.16 µM) was 93 (34.5) % of control. For the same molecule, the “I-sub, % of control (O2 consumption rate)” value ([10]; 0.16 µM) was 102 (11.0) % of control, the “II-ADP, % of control (O2 consumption rate)” value (from here on “II-ADP, % of control”) ([10]; 0.16 µM) was 94 (59.1) % of control and the “II-sub, % of control (O2 consumption rate)” value (shortened to “II-sub, % of control”) ([10]; 0.16 µM) was 110 (20.4) % of control. For the same molecule, the “I-ADP, % of control (O2 consumption rate)” value ([10]; 0.8 µM) was 98 (36.6) % of control, the “I-sub, % of control (O2 consumption rate)” value ([10]; 0.8 µM) was 120 (13.0) % of control and the “II-ADP, % of control” value ([10]; 0.8 µM) was 94 (59.4) % of control. The “II-sub, % of control” value ([10]; 0.8 µM) was 114 (21.1) % of control, the “I-ADP, % of control (O2 consumption rate)” value ([10]; 4 µM) was 110 (41.0) % of control and the “I-sub, % of control (O2 consumption rate)” value ([10]; 4 µM) was 232 (25.1) % of control. For the same molecule, the “II-ADP, % of control” value ([10]; 4 µM) was 84 (53.2) % of control, the “II-sub, % of control” value ([10]; 4 µM) was 144 (26.8) % of control and the “I-ADP, % of control (O2 consumption rate)” value ([10]; 20 µM) was 144 (53.6) % of control. The “I-sub, % of control (O2 consumption rate)” value ([10]; 20 µM) was 540 (58.3) % of control, the “II-ADP, % of control” value ([10]; 20 µM) was 81 (51.3) % of control and the “II-sub, % of control” value ([10]; 20 µM) was 198 (36.7) % of control. The “I-ADP, % of control (O2 consumption rate)” value ([10]; 100 µM) was 59 (30.1) % of control, the “I-sub, % of control (O2 consumption rate)” value ([10]; 100 µM) was 165 (35.4) % of control and the “II-ADP, % of control” value ([10]; 100 µM) was 33 (19.6) % of control. The “II-sub, % of control” value ([10]; 100 µM) was 67 (23.4) % of control and the “Potential Mechanism” value ([10]; mitochondrial respiration in isolated rat liver mitochondria, Clark type oxygen electrode, over tested concentrations) was “Uncoupler at low concentrations (4-20 µM), and Uncoupler + inhibitor at high concentrations (100 µM)”.
